# Experimental data as given in US20240245657A1, “THIADIAZOLIDINONES FOR THEIR USE IN THE TREATMENT OF LIMB-GIRDLE MUSCULAR DYSTROPHY” (CONSEJO SUPERIOR DE INVESTIGACIONES CIENTÍFICAS, priority 2021, published 2024).
# Columns and labels:
# GSK3 = conditions: low therapeutic dose of lithium (0.5 mM); cited from earlier work
# β-catenin = assay: Western blot of total and active β-catenin in human primary myotubes (Wnt pathway activation); assay type: cell-based; conditions: day 8 of differentiation, 48 h; for active β-catenin: tideglusib 1.2 μM, LiCl 10 mM
# Description: (§1) To obtain primary myoblasts, muscle biopsies were processed and cultured in monolayer according to the method described by Askanas (Neurology, 1975, 25, 58-67). To isolate the pure population of myoblasts and CD56-negative cells (CD56-), the protocol described previously (Jaka et al., Expert Reviews in Molecular Medicine, 2017, 19, e2) was used, using immunomagnetic separation based on the early presence of the surface marker CD56 (Miltenyi Biotec, 130-050-401).
# (§2) Myoblasts were cultured in proliferation medium (DMEM, M-199, Insulin, Glutamine and penicillin-streptomycin) with 10% FBS and growth factors at 37° C. in 5% CO2 air incubator. When myoblasts reached confluence, the FBS concentration was reduced to 2% and growth factors were removed from the medium, promoting fusion and production of myotubes.
# (§3) Tideglusib was provided by Dr. Ana Martínez (from The Center for Biological Research, CSIC). It was administered at 1.2 μM, whereas LiCI (Sigma-Aldrich, L7026) was used for comparative purposes at a final concentration of 10 mM. Tideglusib and LiCI were administered at the above referred concentrations to myotubes at eight days of differentiation, and tideglusib also to skin fibroblasts and to CD56-cells. Negative controls, in the case of tideglusib, were performed with DMSO (Fisher Scientific, BP-231). At 48 hours after drug administration, RNA and proteins were extracted.
# (§4) Protein collection from muscle samples and cell cultures, as well as Western blot procedure, were performed as previously described (Jaka et al., Expert Reviews in Molecular Medicine, 2017, 19, e2).
# p70S6K = assay: Western blot of p70S6K and its phosphorylated forms in human primary myotubes (controls and LGMDR1 patients); assay type: cell-based; conditions: 48 h; for P-p70S6K (T389), protein expression value relative to the same sample without treatment / P-p70S6K (T421-S424), protein expression value relative to the same sample without treatment: tideglusib 1.2 μM
# Description: as §1, §2, §3, §4
# GSK3β [1] = conditions: low dose of LiCl treatment; cited from earlier work
# FRBZ gene, β1D integrin = conditions: primary myotubes, LiCl treatment; cited from earlier work
# RPS6 = assay: Western blot of P-RPS6 (Ser235/Ser236) in human primary myotubes (controls and LGMDR1 patients); assay type: cell-based; conditions: 48 h; for P-RPS6 (S235-S236), Western blot densitometry: LiCl 10 mM; for P-RPS6 (S235-S236), protein expression value relative to the same sample without treatment: tideglusib 1.2 μM
# Description: as §1, §2, §3, §4
# skin fibroblasts = assay: Western blot of Wnt and mTOR pathway proteins in skin fibroblasts; assay type: cell-based, human; conditions: 1.2 μM, 48 h
# Description: Skin fibroblasts from healthy controls and from LGMDR1 patients were provided by Dr. Ana Aiastui (Biodonostia Health Research Institute, Cell Culture and Histology Platform). Cells were cultured in Dulbecco's modified Eagle's medium (DMEM, Gibco, 41966-029) supplemented with 10% FBS (Gibco, 10270-106) and 1% penicillin-streptomycin (Gibco, 15140-122) at 37° C. in a 5% CO2 air incubator. Human fibroblasts were cultured at a density of 4×10^4 cells/ml. Tideglusib was provided by Dr. Ana Martínez (from The Center for Biological Research, CSIC). It was administered at 1.2 μM, whereas LiCI (Sigma-Aldrich, L7026) was used for comparative purposes at a final concentration of 10 mM. Tideglusib and LiCI were administered at the above referred concentrations to myotubes at eight days of differentiation, and tideglusib also to skin fibroblasts and to CD56-cells. Negative controls, in the case of tideglusib, were performed with DMSO (Fisher Scientific, BP-231). At 48 hours after drug administration, RNA and proteins were extracted. Protein collection from muscle samples and cell cultures, as well as Western blot procedure, were performed as previously described (Jaka et al., Expert Reviews in Molecular Medicine, 2017, 19, e2).
# mTOR = assay: Western blot of mTOR and P-mTOR in human primary myotubes; assay type: cell-based; conditions: LGMDR1 patient's myotubes, 1.2 μM, 48 h
# Description: (§5) To obtain primary myoblasts, muscle biopsies were processed and cultured in monolayer according to the method described by […] (Neurology, 1975, 25, 58-67). To isolate the pure population of myoblasts and CD56-negative cells (CD56-), the protocol described previously (Jaka et al., Expert Reviews in Molecular Medicine, 2017, 19, e2) was used, using immunomagnetic separation based on the early presence of the surface marker CD56 (Miltenyi Biotec, 130-050-401). Myoblasts were cultured in proliferation medium (DMEM, M-199, Insulin, Glutamine and penicillin-streptomycin) with 10% FBS and growth factors at 37° C. in 5% CO2 air incubator. When myoblasts reached confluence, the FBS concentration was reduced to 2% and growth factors were removed from the medium, promoting fusion and production of myotubes. Tideglusib was provided by Dr. Ana Martínez (from The Center for Biological Research, CSIC). It was administered at 1.2 μM, whereas LiCI (Sigma-Aldrich, L7026) was used for comparative purposes at a final concentration of 10 mM. Tideglusib and LiCI were administered at the above referred concentrations to myotubes at eight days of differentiation, and tideglusib also to skin fibroblasts and to CD56-cells. Negative controls, in the case of tideglusib, were performed with DMSO (Fisher Scientific, BP-231). At 48 hours after drug administration, RNA and proteins were extracted. Protein collection from muscle samples and cell cultures, as well as Western blot procedure, were performed as previously described (Jaka et al., Expert Reviews in Molecular Medicine, 2017, 19, e2).
# GSK3β [2] = assay: Western blot of GSK3β and P-GSK3β (Ser9) in human primary myotubes; assay type: cell-based; conditions: LGMDR1 patients' myotubes, day 8 of differentiation, 1.2 μM, 48 h
# Description: To isolate the pure population of myoblasts and CD56-negative cells (CD56-), the protocol described previously (Jaka et al., Expert Reviews in Molecular Medicine, 2017, 19, e2) was used, using immunomagnetic separation based on the early presence of the surface marker CD56 (Miltenyi Biotec, 130-050-401). Myoblasts were cultured in proliferation medium (DMEM, M-199, Insulin, Glutamine and penicillin-streptomycin) with 10% FBS and growth factors at 37° C. in 5% CO2 air incubator. When myoblasts reached confluence, the FBS concentration was reduced to 2% and growth factors were removed from the medium, promoting fusion and production of myotubes. Tideglusib was provided by Dr. Ana Martínez (from The Center for Biological Research, CSIC). It was administered at 1.2 μM, whereas LiCI (Sigma-Aldrich, L7026) was used for comparative purposes at a final concentration of 10 mM. Tideglusib and LiCI were administered at the above referred concentrations to myotubes at eight days of differentiation, and tideglusib also to skin fibroblasts and to CD56-cells. Negative controls, in the case of tideglusib, were performed with DMSO (Fisher Scientific, BP-231). At 48 hours after drug administration, RNA and proteins were extracted. […]
# [3] = system: CAPN3, FOS, ANOS1 and ITGB1BP2 genes; assay: Quantitative real-time PCR of deregulated genes in LGMDR1 myotubes; assay type: cell-based, human; conditions: 1.2 μM, 48 h
# Description: Tideglusib was provided by Dr. Ana Martínez (from The Center for Biological Research, CSIC). It was administered at 1.2 μM, whereas LiCI (Sigma-Aldrich, L7026) was used for comparative purposes at a final concentration of 10 mM. Tideglusib and LiCI were administered at the above referred concentrations to myotubes at eight days of differentiation, and tideglusib also to skin fibroblasts and to CD56-cells. Negative controls, in the case of tideglusib, were performed with DMSO (Fisher Scientific, BP-231). At 48 hours after drug administration, RNA and proteins were extracted. RNA extraction from primary myoblast/myotubes was performed with an RNeasy Mini Kit (Qiagen). In the case of the muscle biopsies, which were snap frozen and stored at −80° C. until use, total RNA was obtained using an RNA-Plus Kit (QBiogene). The isolated RNA was reverse-transcribed to first-strand complementary DNA (cDNA) in a final volume of 50 μl using a High Capacity cDNA Reverse Transcription Kit (Applied Biosystems), according to the manufacturer's instructions. The expression levels of CAPN3, FOS, ITGB1BP2, ANOS1 and GAPDH genes in the samples were assessed by real-time quantitative PCR with TaqMan probes (Table Il below) using the ‘CFX384 Real-Time PCR Detection System’ (Bio-Rad).
# CD56-cells = assay: Western blot of Wnt and mTOR pathway proteins in CD56- cells from muscle; assay type: cell-based, human; conditions: 1.2 μM, 48 h
# Source text: as §5, with “130-050-401).” for “130-050-401). Myoblasts were cultured in proliferation medium (DMEM, M-199, Insulin, Glutamine and penicillin-streptomycin) with 10% FBS and growth factors at 37° C. in 5% CO2 air incubator. When myoblasts reached confluence, the FBS concentration was reduced to 2% and growth factors were removed from the medium, promoting fusion and production of myotubes.”
# integrin β1D and melusin = assay: Western blot of structural (costamere) proteins in human myotubes; assay type: cell-based; conditions: 1.2 μM, 48 h
# Description: as §5, with “Protein collection from muscle samples and cell cultures, as well as Western blot procedure, were performed as previously described (Jaka et al., Expert Reviews in Molecular Medicine, 2017, 19, e2).” left out
# [4] = LGMDR1 patient's myotubes, 1.2 μM
# [5] = myotubes of LGMDR1 patient 09-25
smiles,measurement,setting,value
[Cl-].[Li+] [LiCl],GSK3 inhibition,GSK3,inhibit
same,myoblast fusion,GSK3,augment
same,active β-catenin,β-catenin,increase
same,"P-p70S6K (T421-S424), Western blot densitometry","p70S6K; LiCl 10 mM, myotubes of LGMDR1 patient 09-21, same sample without drug 0.3",0.5
same,"P-p70S6K (T421-S424), Western blot densitometry","p70S6K; LiCl 10 mM, myotubes of LGMDR1 patient 09-24, same sample without drug 1.8",1.4
same,"P-p70S6K (T421-S424), Western blot densitometry","p70S6K; LiCl 10 mM, myotubes of LGMDR1 patient 09-25, same sample without drug 0.7",0.65
same,"P-p70S6K (T421-S424), Western blot densitometry","p70S6K; LiCl 10 mM, myotubes of control 09-23, same sample without drug 0.8",0.78
same,"P-p70S6K (T421-S424), Western blot densitometry","p70S6K; LiCl 10 mM, myotubes of control 13-07, same sample without drug 0.8",0.7
same,"proteins involved in the mTOR pathway and their phosphorylation forms (p70S6K, RPS6)","p70S6K; control and LGMDR1 patient's myotubes, LiCl 10 mM",did not provide any increase
same,GSK3β inhibition,GSK3β [1],effective in inhibiting
same,fatigue resistance in some muscles via NFAT activation,GSK3β [1],enhances
same,expression of the FRBZ gene,"FRBZ gene, β1D integrin",lower levels
same,β1D adult isoform of the integrin,"FRBZ gene, β1D integrin",higher levels
same,"P-RPS6 (S235-S236), Western blot densitometry","RPS6; myotubes of LGMDR1 patient 09-21, same sample without drug 1.5",1.5
same,"P-RPS6 (S235-S236), Western blot densitometry","RPS6; myotubes of LGMDR1 patient 09-24, same sample without drug 3.5",3
same,"P-RPS6 (S235-S236), Western blot densitometry","RPS6; myotubes of LGMDR1 patient 09-25, same sample without drug 2.8",2.5
same,"P-RPS6 (S235-S236), Western blot densitometry","RPS6; myotubes of control 09-23, same sample without drug 3.0",3.8
same,"P-RPS6 (S235-S236), Western blot densitometry","RPS6; myotubes of control 13-07, same sample without drug 3",3
"O=c1sn(-c2cccc3ccccc23)c(=O)n1Cc1ccccc1 [Tideglusib, 4-benzyl2-naphthalen-1-yl-[1,2,4]thiadiazolidine-3,5-dione]",active form of β-catenin,skin fibroblasts,did not show an increase
same,phosphorylation of GSK3β (Ser9),skin fibroblasts,did not show an increase
same,phosphorylation of RPS6,skin fibroblasts,decrease
same,β-catenin,skin fibroblasts,did not show an increase
same,total β-catenin expression,β-catenin; 1.2 μM,increase
same,active β-catenin,β-catenin,increase
same,expression of total p70S6K,p70S6K; [4],increased
same,phosphorylation of p70S6K (Thr389),p70S6K; [4],increased
same,phosphorylation of p70S6K (Thr421/Ser424),p70S6K; [4],increased
same,"effect on p70S6K, its phosphorylation and P-RPS6","p70S6K; control myotubes, 1.2 μM",very slight
same,"P-p70S6K (T389), protein expression value relative to the same sample without treatment",p70S6K; [5],1.8
same,"P-p70S6K (T421-S424), protein expression value relative to the same sample without treatment",p70S6K; [5],1.8
same,"P-p70S6K (T389), protein expression value relative to the same sample without treatment",p70S6K; myotubes of control 13-05,0.85
same,"P-p70S6K (T421-S424), protein expression value relative to the same sample without treatment",p70S6K; myotubes of control 13-05,0.8
same,phosphorylation of mTOR (Ser2448),mTOR,significant increase
same,phosphorylation of mTOR (Ser2481),mTOR,significant increase
same,total mTOR,mTOR,no significant changes
same,amount of total GSK3β,GSK3β [2],increases
same,phosphorylation of GSK3β (Ser9),GSK3β [2],increases
same,expression of ANOS1 gene,[3],increase
same,expression of CAPN3 gene,[3],increase
same,expression of FOS gene,[3],increase
same,expression of ITGB1BP2 gene,[3],increase
same,phosphorylation of RPS6 (Ser235/Ser236),RPS6; [4],increased
same,"P-RPS6 (S235-S236), protein expression value relative to the same sample without treatment",RPS6; [5],1.6
same,"P-RPS6 (S235-S236), protein expression value relative to the same sample without treatment",RPS6; myotubes of control 13-05,0.8
same,active form of β-catenin,CD56-cells,no significant alteration
same,amount of total β-catenin,CD56-cells,no significant alteration
same,mTOR,CD56-cells,no differences
same,phosphorylation of RPS6,CD56-cells,no differences
same,phosphorylation of p70S6K,CD56-cells,no differences
same,integrin β1D protein,integrin β1D and melusin,increase
same,melusin protein,integrin β1D and melusin,increase
